Test results taken from PMC6150240, “Synthesis and 2D-QSAR Study of Active Benzofuran-Based Vasodilators” (Molecules : A Journal of Synthetic Chemistry and Natural …, 2017).
Where two headings read alike, the source gives them in different places.

Columns and labels:
[1] = tested on: isolated thoracic aortic rings of male Wistar rats; assay: Vasodilation activity screening: isolated thoracic aortic rings pre-contracted with norepinephrine hydrochloride; details: Rattus norvegicus
Procedure: The vasodilation activity screening procedures were carried out according to the standard reported techniques by testing the effects of the synthesized 2-alkoxy-4-aryl-6-(benzofuran-2-yl)-3-pyridinecarbonitriles 4a–x on isolated thoracic aortic rings of male Wistar rats (250–350 g). After light ether anesthesia, the rats were sacrificed by cervical dislocation. The aortae were immediately excised, freed of extraneous tissues and prepared for isometric tension recording. Aorta was cut into (3–5 mm width) rings and each ring was placed in a vertical chamber “10 mL jacketed automatic multi-chamber organ bath system (Model no. ML870B6/C, Panlab, Spain)” filled with Krebs solution composed of (in mM): NaCl, 118.0; KCl, 4.7; NaHCO3, 25.0; CaCl2, 1.8; NaH2PO4, 1.2; MgSO4, 1.2; glucose, 11.0 and oxygenated with carbogen gas (95% O2/5% CO2) at 37 ± 0.5 °C. Each aortic ring was mounted between two stainless steel hooks passed through its lumen. The lower hook was fixed between two plates, while the upper one was attached to a force displacement transducer (Model no. MLT0201, Panlab, Spain) connected to an amplifier (PowerLab, AD Instruments Pty., Ltd. Victoria, Australia), which is connected to a computer. The chart for Windows (v 3.4) software was used to record and elaborate data. Preparations were stabilized under 2 g resting tension during 2 h and then the contracture response to norepinephrine hydrochloride (10^−6 M) was measured before and after exposure to increasing concentrations of the tested synthesized compounds. The tested compounds were dissolved in dimethylsulfoxide (DMSO) as stock solution (10 mL of 0.005 M). […] This experiment was carried out in according to recommendations in the Guide for the Care and Use of Laboratory Animals of the National Institutes of Health (NIH publication No. 85–23, revised 1996) and under regulations of the Animal Care and Use of National Research Centre in Egypt.

[2] = norepinephrine hydrochloride 10^−6 M, three replicates, read-out: Potency (IC50), concentration necessary for 50% reduction of maximal norepinephrine hydrochloride induced contracture
[3] = norepinephrine hydrochloride induced contracture, observed values as used in the QSAR, read-out: Observed IC50

Row | SMILES | IC50 [1, 2] [µM] | IC50 [1, 3] [µM] | melting point [°C]
1 | CCOc1nc(-c2ccccc2)cc(-c2cn(-c3ccccc3)nc2-c2cc3ccccc3o2)c1C#N [Compound 4b, 4-(3-(Benzofuran-2-yl)-1-phenyl-1H-pyrazol-4-yl)-2-ethoxy-6-phenylpyridine-3-carbonitrile] | 343 | 343 | 186 to 188
2 | CCOc1nc(-c2ccc(Cl)cc2)cc(-c2cn(-c3ccccc3)nc2-c2cc3ccccc3o2)c1C#N [Compound 4d, 4-(3-(Benzofuran-2-yl)-1-phenyl-1H-pyrazol-4-yl)-6-(4-chlorophenyl)-2-ethoxypyridine-3-carbonitrile] | 397 | 397 | 199 to 201
3 | COc1nc(-c2ccc(C)cc2)cc(-c2cn(-c3ccccc3)nc2-c2cc3ccccc3o2)c1C#N [Compound 4i, 4-(3-(Benzofuran-2-yl)-1-phenyl-1H-pyrazol-4-yl)-2-methoxy-6-p-tolylpyridine-3-carbonitrile] | 330 | 330 | 258 to 260
4 | CCOc1nc(-c2ccc(C)cc2)cc(-c2cn(-c3ccccc3)nc2-c2cc3ccccc3o2)c1C#N [Compound 4j, 4-(3-(Benzofuran-2-yl)-1-phenyl-1H-pyrazol-4-yl)-2-ethoxy-6-p-tolylpyridine-3-carbonitrile] | 452 | 452 | 202 to 204
5 | COc1ccc(-c2cc(-c3cn(-c4ccccc4)nc3-c3cc4ccccc4o3)c(C#N)c(OC)n2)cc1 [Compound 4k, 4-(3-(Benzofuran-2-yl)-1-phenyl-1H-pyrazol-4-yl)-2-methoxy-6-(4-methoxyphenyl)pyridine-3-carbonitrile] | 428 | 322 | 256 to 258
6 | CCOc1nc(-c2ccc3c(c2)CCCC3)cc(-c2cn(-c3ccccc3)nc2-c2cc3ccccc3o2)c1C#N [Compound 4n, 4-(3-(Benzofuran-2-yl)-1-phenyl-1H-pyrazol-4-yl)-2-ethoxy-6-(1,2,3,4-tetrahydronaphthalen-6-yl)pyridine-3-carbonitrile] | 337 | 337 | 213 to 215
7 | COc1nc(-c2ccc[nH]2)cc(-c2cn(-c3ccccc3)nc2-c2cc3ccccc3o2)c1C#N [Compound 4o, 4-(3-(Benzofuran-2-yl)-1-phenyl-1H-pyrazol-4-yl)-2-methoxy-6-(1H-pyrrol-2-yl)pyridine-3-carbonitrile] | 356 |  | 187 to 189
8 | CCOc1nc(-c2ccc[nH]2)cc(-c2cn(-c3ccccc3)nc2-c2cc3ccccc3o2)c1C#N [Compound 4p, 4-(3-(Benzofuran-2-yl)-1-phenyl-1H-pyrazol-4-yl)-2-ethoxy-6-(1H-pyrrol-2-yl)pyridine-3-carbonitrile] | 400 | 298 | 208 to 210
9 | COc1nc(-c2ccccn2)cc(-c2cn(-c3ccccc3)nc2-c2cc3ccccc3o2)c1C#N [Compound 4u, 4-(3-(Benzofuran-2-yl)-1-phenyl-1H-pyrazol-4-yl)-2-methoxy-6-(pyridin-2-yl)pyridine-3-carbonitrile] | 333 | 333 | 275 to 277
10 | CCOc1nc(-c2ccccn2)cc(-c2cn(-c3ccccc3)nc2-c2cc3ccccc3o2)c1C#N [Compound 4v, 4-(3-(Benzofuran-2-yl)-1-phenyl-1H-pyrazol-4-yl)-2-ethoxy-6-(pyridin-2-yl)pyridine-3-carbonitrile] | 370 | 370 | 204 to 206

Results, then the molecule that gave them:

Row | IC50 [1, 2] [µM] | IC50 [1, 3] [µM] | melting point [°C] | SMILES
11 | 281 | 281 |  | COc1nc(-c2ccccc2)cc(-c2cn(-c3ccccc3)nc2-c2cc3ccccc3o2)c1C#N [Compound 4a, 4-(3-(Benzofuran-2-yl)-1-phenyl-1H-pyrazol-4-yl)-2-methoxy-6-phenylpyridine-3-carbonitrile]
12 | 295 | 295 |  | COc1nc(-c2ccc(Cl)cc2)cc(-c2cn(-c3ccccc3)nc2-c2cc3ccccc3o2)c1C#N [Compound 4c, 4-(3-(Benzofuran-2-yl)-1-phenyl-1H-pyrazol-4-yl)-6-(4-chlorophenyl)-2-methoxypyridine-3-carbonitrile]
13 | 253 | 253 |  | COc1nc(-c2ccc(Br)cc2)cc(-c2cn(-c3ccccc3)nc2-c2cc3ccccc3o2)c1C#N [Compound 4e, 4-(3-(Benzofuran-2-yl)-1-phenyl-1H-pyrazol-4-yl)-6-(4-bromophenyl)-2-methoxypyridine-3-carbonitrile]
14 | 267 | 267 |  | CCOc1nc(-c2ccc(Br)cc2)cc(-c2cn(-c3ccccc3)nc2-c2cc3ccccc3o2)c1C#N [Compound 4f, 4-(3-(Benzofuran-2-yl)-1-phenyl-1H-pyrazol-4-yl)-6-(4-bromophenyl)-2-ethoxypyridine-3-carbonitrile]
15 | 275 | 275 |  | COc1nc(-c2ccc(F)cc2)cc(-c2cn(-c3ccccc3)nc2-c2cc3ccccc3o2)c1C#N [Compound 4g, 4-(3-(benzofuran-2-yl)-1-phenyl-1H-pyrazol-4-yl)-6-(4-fluorophenyl)-2-methoxypyridine-3-carbonitrile]
16 | 330 | 330 | 204 to 206 | CCOc1nc(-c2ccc(F)cc2)cc(-c2cn(-c3ccccc3)nc2-c2cc3ccccc3o2)c1C#N [Compound 4h, 4-(3-(Benzofuran-2-yl)-1-phenyl-1H-pyrazol-4-yl)-2-ethoxy-6-(4-fluorophenyl)pyridine-3-carbonitrile]
17 | 291 | 291 |  | CCOc1nc(-c2ccc(OC)cc2)cc(-c2cn(-c3ccccc3)nc2-c2cc3ccccc3o2)c1C#N [Compound 4l, 4-(3-(Benzofuran-2-yl)-1-phenyl-1H-pyrazol-4-yl)-2-ethoxy-6-(4-methoxyphenyl)pyridine-3-carbonitrile]
18 | 286 | 286 |  | COc1nc(-c2ccc3c(c2)CCCC3)cc(-c2cn(-c3ccccc3)nc2-c2cc3ccccc3o2)c1C#N [Compound 4m, 4-(3-(Benzofuran-2-yl)-1-phenyl-1H-pyrazol-4-yl)-6-(1,2,3,4-tetrahydronaphthalen-6-yl)-2-methoxypyridine-3-carbonitrile]
19 | 321 | 321 | 246 to 248 | COc1nc(-c2ccco2)cc(-c2cn(-c3ccccc3)nc2-c2cc3ccccc3o2)c1C#N [Compound 4q, 4-(3-(Benzofuran-2-yl)-1-phenyl-1H-pyrazol-4-yl)-6-(furan-2-yl)-2-methoxypyridine-3-carbonitrile]
20 | 254 | 254 |  | CCOc1nc(-c2ccco2)cc(-c2cn(-c3ccccc3)nc2-c2cc3ccccc3o2)c1C#N [Compound 4r, 4-(3-(Benzofuran-2-yl)-1-phenyl-1H-pyrazol-4-yl)-2-ethoxy-6-(furan-2-yl)pyridine-3-carbonitrile]
21 | 268 |  |  | COc1nc(-c2cccs2)cc(-c2cn(-c3ccccc3)nc2-c2cc3ccccc3o2)c1C#N [Compound 4s, 4-(3-(Benzofuran-2-yl)-1-phenyl-1H-pyrazol-4-yl)-2-methoxy-6-(thiophen-2-yl)pyridine-3-carbonitrile]
22 | 298 | 400 |  | CCOc1nc(-c2cccs2)cc(-c2cn(-c3ccccc3)nc2-c2cc3ccccc3o2)c1C#N [Compound 4t, 4-(3-(Benzofuran-2-yl)-1-phenyl-1H-pyrazol-4-yl)-2-ethoxy-6-(thiophen-2-yl)pyridine-3-carbonitrile]
23 | 223 | 223 |  | COc1nc(-c2nc3ccccc3n2C)cc(-c2cn(-c3ccccc3)nc2-c2cc3ccccc3o2)c1C#N [Compound 4w, 4-(3-(Benzofuran-2-yl)-1-phenyl-1H-pyrazol-4-yl)-2-methoxy-6-(1-methyl-1H-benzo[d]imidazole-2-yl)pyridine-3-carbonitrile]
24 | 299 | 299 |  | CCOc1nc(-c2nc3ccccc3n2C)cc(-c2cn(-c3ccccc3)nc2-c2cc3ccccc3o2)c1C#N [Compound 4x, 4-(3-(Benzofuran-2-yl)-1-phenyl-1H-pyrazol-4-yl)-2-ethoxy-6-(1-methyl-1H-benzo[d]-imidazol-2-yl)pyridine-3-carbonitrile]
